Test results from US6902724B1, “Enhanced efficacy basic aluminum halides, antiperspirant active compositions and methods for making” (Reheis, Inc., priority 2004, dated 2005).

Legend:
[1] = In vitro model: pore blocking of Millipore filter (IVMI); conditions: 0.185 molar aluminum solution; pH 10 buffer; 0.25% NaCl; 100 mm H2O; inverse relation to % sweat reduction
Source text: The apparatus and test protocol are based on method described by Reller and Leudders (Reller, H. H. and Leudders, W. L., Advances in Modern Toxicology, 4: 1-59 (1977)) and EP 0586235 B1 disclosures of which are incorporated herein by reference. Reller and Leudders described a millipore system which they used to measure the obstruction caused by the neutralization of various metal salts. They then compared their in vitro findings with those obtained for antiperspirant efficacy of the salts which had been tested in humans and found a reasonable correlation. A modified version of the apparatus and protocol described in […] were developed and used to determine the relative in vitro efficacy of antiperspirant actives. The system is shown schematically in FIG. 2 of the accompanying drawings. The system consists of four major components, namely the pressure control unit 1, the sweat reservoir II, the cell III and the measuring system IV.
The pressure control unit I consisted of a standard nitrogen gas cylinder 1 equipped with a pressure regulator 2 and connected to an on/off isolation valve 3 and pressure relief safety valve 4. The on/off valve 3 isolates the nitrogen cylinder 1 from the rest of the system. The majority of connections were made using ¼″ stainless steel tubing and swage lock fittings. […]

[2] = in vivo; cited from earlier work

## [Cl][Al]([Cl])[Cl] [aluminum chloride solution, aluminum chloride]
[1]
  IVMI (In Vitro Model Index): lowest
[2]
  antiperspirancy among the various aluminum salts: highest antiperspirancy
